Assay results from ChEMBL document CHEMBL1201862, “PubChem BioAssay data set” (2004).
Structures can show the parent of a compound that is named as a salt. Active and inactive are the calls of the source.

Tests used:
Cytochrome P450 1A2 = target: T1, Cytochrome P450 1A2 (Homo sapiens, UniProt P05177);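 further: PubChem cytochrome P450 panel assay, CYP1A2 panel member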
T1 sequence (P05177 whole entry): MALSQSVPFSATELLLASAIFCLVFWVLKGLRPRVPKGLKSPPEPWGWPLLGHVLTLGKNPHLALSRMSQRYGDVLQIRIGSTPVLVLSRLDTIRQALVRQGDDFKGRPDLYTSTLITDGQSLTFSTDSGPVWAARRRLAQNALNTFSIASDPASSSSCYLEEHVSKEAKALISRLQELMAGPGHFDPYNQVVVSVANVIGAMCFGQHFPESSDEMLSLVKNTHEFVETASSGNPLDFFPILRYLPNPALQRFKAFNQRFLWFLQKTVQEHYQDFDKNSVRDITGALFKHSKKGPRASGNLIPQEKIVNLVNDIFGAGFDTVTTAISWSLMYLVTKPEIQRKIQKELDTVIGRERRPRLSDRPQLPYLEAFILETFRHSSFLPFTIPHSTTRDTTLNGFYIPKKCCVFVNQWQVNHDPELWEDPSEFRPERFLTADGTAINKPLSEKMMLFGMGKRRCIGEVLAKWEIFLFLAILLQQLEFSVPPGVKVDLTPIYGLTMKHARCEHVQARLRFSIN

[1] = target: T2, Heat shock factor protein 1 (Mus musculus, UniProt P38532); assay: decrease of HSF1-responsive luciferase luminescence – cell-based, NIH3T3, dose retest, confirmation (AID 2382); assay type: functional;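 further: NIH3T3 fibroblasts with HSF1-driven luciferase reporter stressed by proteasome inhibitor MG132; luminescence from HSF1-driven luciferase expression after 8 hours of MG132 stress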
T2 sequence (P38532 whole entry): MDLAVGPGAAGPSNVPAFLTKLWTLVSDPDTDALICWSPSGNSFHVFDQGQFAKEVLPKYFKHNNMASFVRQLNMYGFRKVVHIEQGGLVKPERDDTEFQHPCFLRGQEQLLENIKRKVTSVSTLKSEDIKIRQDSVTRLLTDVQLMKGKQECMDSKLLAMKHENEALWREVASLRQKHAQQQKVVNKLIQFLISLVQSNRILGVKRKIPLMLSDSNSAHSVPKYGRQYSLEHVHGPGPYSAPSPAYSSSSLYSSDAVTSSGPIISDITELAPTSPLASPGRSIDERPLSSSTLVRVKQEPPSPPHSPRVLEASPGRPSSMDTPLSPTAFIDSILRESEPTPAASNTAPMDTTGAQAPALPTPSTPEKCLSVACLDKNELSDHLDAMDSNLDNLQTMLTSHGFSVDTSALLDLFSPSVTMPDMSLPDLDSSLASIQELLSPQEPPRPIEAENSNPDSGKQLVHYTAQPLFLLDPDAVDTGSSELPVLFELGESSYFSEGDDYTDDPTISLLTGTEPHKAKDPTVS

[2] = target: T3, Rac GTPase-activating protein 1 (Homo sapiens, UniProt Q9H0H5); assay: blockers of MgcRacGAP-driven Rac1 GTP hydrolysis – biochemical, ADP Hunter fluorescence, primary and confirmatory, confirmation (AID 624330); assay type: functional
T3 sequence (Q9H0H5 whole entry): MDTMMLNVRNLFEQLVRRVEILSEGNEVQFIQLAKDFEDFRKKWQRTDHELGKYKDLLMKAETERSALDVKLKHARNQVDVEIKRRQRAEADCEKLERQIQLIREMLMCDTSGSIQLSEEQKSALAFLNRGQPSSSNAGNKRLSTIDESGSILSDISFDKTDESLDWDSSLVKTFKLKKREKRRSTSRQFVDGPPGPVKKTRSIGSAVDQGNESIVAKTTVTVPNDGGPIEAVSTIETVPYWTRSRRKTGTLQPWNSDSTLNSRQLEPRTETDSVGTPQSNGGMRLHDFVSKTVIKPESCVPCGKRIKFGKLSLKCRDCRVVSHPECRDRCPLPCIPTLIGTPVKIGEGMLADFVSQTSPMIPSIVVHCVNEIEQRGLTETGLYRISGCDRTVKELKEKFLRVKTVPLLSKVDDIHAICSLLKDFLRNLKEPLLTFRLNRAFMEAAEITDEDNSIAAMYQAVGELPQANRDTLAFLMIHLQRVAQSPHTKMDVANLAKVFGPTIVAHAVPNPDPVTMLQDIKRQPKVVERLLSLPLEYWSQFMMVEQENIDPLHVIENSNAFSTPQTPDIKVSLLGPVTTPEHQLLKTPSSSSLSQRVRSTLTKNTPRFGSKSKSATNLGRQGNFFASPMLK

[3] = target: T4, RNA-binding protein pos-1 (Caenorhabditis elegans, UniProt G5EF15); assay: disruptors of C. elegans POS-1 RNA interaction – biochemical, fluorescence polarization, dose response (AID 1964);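 further: purified POS-1 fused to maltose binding protein made in E. coli; potency of compounds blocking POS-1 binding to fluorescent RNA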
T4 sequence (G5EF15 whole entry): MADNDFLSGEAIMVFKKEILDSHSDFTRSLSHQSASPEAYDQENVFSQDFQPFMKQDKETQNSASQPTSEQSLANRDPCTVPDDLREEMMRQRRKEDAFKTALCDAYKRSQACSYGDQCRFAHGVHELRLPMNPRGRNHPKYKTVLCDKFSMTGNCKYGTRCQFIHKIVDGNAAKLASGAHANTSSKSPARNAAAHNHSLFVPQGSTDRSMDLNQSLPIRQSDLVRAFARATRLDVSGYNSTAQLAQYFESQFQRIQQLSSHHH

[4] = target: T5, Zinc finger protein mex-5 (Caenorhabditis elegans, UniProt Q9XUB2); assay: potency of MEX-5 RNA-binding blockers – biochemical, C. elegans, fluorescence polarization, dose response (AID 1960)
T5 sequence (Q9XUB2 whole entry): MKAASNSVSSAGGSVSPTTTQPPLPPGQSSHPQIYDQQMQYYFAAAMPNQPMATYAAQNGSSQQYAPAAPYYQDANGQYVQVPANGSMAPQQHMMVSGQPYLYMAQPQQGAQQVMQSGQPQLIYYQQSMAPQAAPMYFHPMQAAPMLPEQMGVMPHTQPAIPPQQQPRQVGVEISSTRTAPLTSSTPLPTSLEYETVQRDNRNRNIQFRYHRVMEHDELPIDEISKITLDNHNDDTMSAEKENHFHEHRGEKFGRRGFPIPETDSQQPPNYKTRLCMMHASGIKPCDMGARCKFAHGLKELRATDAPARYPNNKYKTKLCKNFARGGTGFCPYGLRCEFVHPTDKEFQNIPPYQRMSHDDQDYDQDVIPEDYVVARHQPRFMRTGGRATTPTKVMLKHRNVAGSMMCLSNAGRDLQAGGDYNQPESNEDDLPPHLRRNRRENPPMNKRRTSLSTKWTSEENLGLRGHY

[5] = Luminescence Cell-Based Dose Retest to Confirm Inhibitors of Cancer Stem Cells. [Related pubchem assays (depositor defined):AID2717, AID2721]; assay type: functional; conditions: Homo sapiens
Cytochrome P450 2C9 = Cytochrome P450 2C9 (Homo sapiens, UniProt P11712)
Chain of Cytochrome P450 2C9 (P11712 whole entry): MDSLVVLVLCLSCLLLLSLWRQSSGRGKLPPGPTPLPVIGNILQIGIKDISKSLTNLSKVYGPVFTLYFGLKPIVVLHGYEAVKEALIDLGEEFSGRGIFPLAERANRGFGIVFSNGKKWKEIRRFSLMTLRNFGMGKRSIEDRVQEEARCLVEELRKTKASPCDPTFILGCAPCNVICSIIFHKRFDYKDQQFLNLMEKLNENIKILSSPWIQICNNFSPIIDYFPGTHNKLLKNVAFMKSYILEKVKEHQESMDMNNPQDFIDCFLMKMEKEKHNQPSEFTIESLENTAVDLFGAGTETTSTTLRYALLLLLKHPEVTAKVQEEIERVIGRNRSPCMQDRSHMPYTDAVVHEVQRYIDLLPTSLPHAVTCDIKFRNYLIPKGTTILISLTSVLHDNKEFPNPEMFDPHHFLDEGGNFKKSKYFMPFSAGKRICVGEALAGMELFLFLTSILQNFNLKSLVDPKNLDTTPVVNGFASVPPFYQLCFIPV

Cytochrome P450 3A4 = Cytochrome P450 3A4 (Homo sapiens, UniProt P08684);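 further: CYP3A4 tested as one member of a cytochrome P450 panel screen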
Chain of Cytochrome P450 3A4 (P08684 whole entry): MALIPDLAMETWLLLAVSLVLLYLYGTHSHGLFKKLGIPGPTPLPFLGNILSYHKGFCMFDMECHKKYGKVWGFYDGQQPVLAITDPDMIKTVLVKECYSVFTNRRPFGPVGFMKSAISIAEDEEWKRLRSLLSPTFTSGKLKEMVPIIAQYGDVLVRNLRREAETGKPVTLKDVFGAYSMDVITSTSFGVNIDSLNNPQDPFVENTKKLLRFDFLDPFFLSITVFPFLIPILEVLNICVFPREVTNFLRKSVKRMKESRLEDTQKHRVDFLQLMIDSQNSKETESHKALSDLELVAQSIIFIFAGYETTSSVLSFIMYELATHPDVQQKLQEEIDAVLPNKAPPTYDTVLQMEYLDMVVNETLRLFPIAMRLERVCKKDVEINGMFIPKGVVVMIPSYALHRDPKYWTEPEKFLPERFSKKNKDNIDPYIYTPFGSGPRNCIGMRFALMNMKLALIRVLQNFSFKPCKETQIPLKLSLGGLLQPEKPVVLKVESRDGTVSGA

[6] = Trypanosoma cruzi growth suppression in host cells – NIH3T3 host cells, beta-gal luminescence, confirmation (AID 2044); assay type: functional, cell-based;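 further: intracellular parasites grown in NIH/3T3 mouse fibroblasts as host cells; luminescent beta-galactosidase reporter signal from transgenic T. cruzi replicating inside host cells; inhibitors lower the luminescence signal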
[7] = NIH3T3 cell viability loss – ATP luminescence, mouse fibroblasts, counter-screen, dose response (AID 2010); assay type: functional, cell-based;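 further: cells exposed to compound for about 90 hours before reading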

NC[C@H](CP(=O)(O)O)c1ccc(Cl)cc1
AC50 (Cytochrome P450 1A2): 39.8 µM (inconclusive)

Cc1c(Nc2ncccc2C(=O)O)cccc1C(F)(F)F
AC50 (Cytochrome P450 1A2): 12.6 µM (inconclusive)

CC(C)(C)NC(=O)c1c(F)c(F)c(F)c(F)c1F
EC50 [1]: > 195 µM (not active)

Oc1ccc(/C=N/N=C/c2ccc(O)cc2)cc1
IC50 [2]: 77.6 µM (active)

COC(=O)c1cc(C(=O)OC)cc(-n2c(C)cc(C=O)c2C)c1
EC50 [3]: 78.7 µM (active) | EC50 [4]: > 300 µM (not active)

CSc1ccc2c(c1)C(N1CCN(C)CC1)Cc1ccccc1S2 (stereo unspecified)
AC50 [5]: 11.1 µM (active)

Cc1ccn2c(Nc3ccc4c(c3)OCO4)c(-c3ccc(O)cc3)nc2c1
IC50 [2]: 39.7 µM (active)

O=c1/c(=C\c2ccc(O)cc2)sc2nc(-c3ccccc3)c(-c3ccccc3)n12
EC50 [3]: > 300 µM (not active) | EC50 [4]: > 300 µM (inconclusive)

CCCCCCSc1ccc(-c2nc3cnccn3c2NCCCC)cc1
AC50 [5]: 3.59 µM (active)

Cc1nc2sc3c(NCc4ccco4)ncnc3c2c2c1COC(C)(C)C2
EC50 [1]: > 195 µM (not active)

CCOC(=O)c1c(NC(=O)CSc2nnc(-c3c[nH]c4ccccc34)n2C)sc2c1CCCC2
EC50 [1]: > 195 µM (not active)

N#C/C(=C\N1CCNC1=S)C(=O)c1ccc2ccccc2c1
AC50 (Cytochrome P450 1A2): 1.58 µM (inconclusive) | AC50 (Cytochrome P450 2C9): 3.16 µM (inconclusive)

Cc1cc(C)c(NC(=O)Nc2ccc3c(c2)OCO3)c(C)c1
EC50 [1]: > 195 µM (not active)

Cc1cnc(CNc2ncncc2-c2ccc(C(=O)N(C)C)cc2)cn1
AC50 (Cytochrome P450 1A2): 20 µM (inconclusive)

COc1ccc(NC2CCCN(C(=O)C3(C)CCCCC3)C2)cc1 (stereo unspecified)
IC50 [2]: 80.7 µM (active)

Cn1cccc1-c1nc2ccccc2n1Cc1ccccc1
AC50 [5]: 10.4 µM (active)

CCN1CCc2c(OCc3ccccc3)cccc2C1=O
EC50 [1]: 37.3 µM (active)

S=C(NCc1ccncc1)Nc1ccc(Cl)cc1Cl
EC50 [3]: > 300 µM (not active) | EC50 [4]: > 300 µM (not active)

Oc1cc(Br)ccc1/C=N/c1ccc(N2CCCCC2)cc1
IC50 [2]: 5.88 µM (active)

COc1ccc(C(=O)N2CCC3(CCN(Cc4ccc(C#N)cc4)CC3)CC2)cc1
AC50 (Cytochrome P450 1A2): 12.6 µM (inconclusive) | AC50 (Cytochrome P450 2C9): 31.6 µM (inconclusive)

CC/C(=C(\c1ccccc1)c1ccc(OCCN(C)C)cc1)c1ccccc1 [TAMOXIFEN CITRATE]
AC50 [5]: 4.53 µM (active)

CCOC(=O)c1cc(=O)n2nc(-c3ccc(C)cc3)nc2s1
EC50 [3]: > 300 µM (not active) | EC50 [4]: > 300 µM (not active)

O=C(CNC(=O)c1ccccc1Br)N/N=C/c1ccc(O)cc1
IC50 [2]: 58.7 µM (active)

Cc1nn2c(N3CCOCC3)c3c(nc2c1-c1ccccc1)CCCC3
EC50 [3]: > 300 µM (not active) | EC50 [4]: > 300 µM (not active)

CCO/C(C)=C1/SC(=S)NC1=O
EC50 [1]: > 195 µM (not active)

COc1cc(N2N=C(c3ccccc3)CC2c2ccccc2)c(C=O)cc1C=O (stereo unspecified)
EC50 [1]: > 195 µM (not active)

CCOC(=O)C1=C(CN2c3ccccc3CC2C)NC(=O)NC1c1ccccc1 (stereo unspecified)
AC50 (Cytochrome P450 1A2): 22.4 µM (inconclusive) | AC50 (Cytochrome P450 2C9): 25.1 µM (inconclusive)

Cc1cc(C)cc(OCC(O)CN2CC(C)OC(C)C2)c1 (stereo unspecified)
EC50 [1]: 32.9 µM (active)

Clc1ccc(-c2nnc(-c3ccccc3)c(-c3ccccc3)n2)cc1
AC50 [5]: 10.1 µM (active)

COc1ccc(CN2CCN(Cc3ccco3)CC2)cc1OC
IC50 [2]: 69.2 µM (active)

COC(=O)c1ccc(-n2c(C)cc(C(=O)COC(=O)CNS(=O)(=O)c3ccc(C)cc3)c2C)cc1
EC50 [3]: > 300 µM (not active) | EC50 [4]: > 300 µM (not active)

CC(C)(C)[C@H]1C=C(C(=O)Nc2ccccc2)O[C@@H](OCCCCO)C1
EC50 [1]: 5.49 µM (active)

COc1ccc(-c2ccc(/C=C3\C(=O)N(c4ccccc4)N=C3c3ccccc3)o2)c([N+](=O)[O-])c1
AC50 (Cytochrome P450 1A2): 5.01 µM (inconclusive)

Cc1ccc(-c2cc(C(=O)NCc3ccc4c(c3)OCO4)no2)cc1
AC50 [5]: > 195 µM (inactive)

Cc1ccccc1OCC(O)Cn1c2ccccc2c2ccccc21 (stereo unspecified)
AC50 [5]: 5.66 µM (active)

CC1(C)CC(=O)C(=NNc2ccc(OC(F)F)cc2)C(=O)C1
EC50 [1]: > 195 µM (not active)

COc1nc(-c2ccccc2)ccc1-c1noc(COc2ccccc2)n1
EC50 [1]: > 195 µM (not active)

COc1cccc(N(C(=O)c2cccs2)c2nc3ccccc3s2)c1
EC50 [1]: > 195 µM (not active)

COc1ccc(OC(=O)C2CC(=O)N(c3ccc(C)cc3)C2)cc1 (stereo unspecified)
IC50 [2]: 48.3 µM (active)

CN(CCC(=O)O)C1=Nc2ccc(Cl)cc2C(c2ccccc2)=[N+]([O-])C1
AC50 (Cytochrome P450 1A2): 0.0631 µM (inconclusive)

COc1ccc(C(=O)CSc2nnc(CN3CCCCC3)n2-c2ccc(Cl)cc2)cc1OC
AC50 [5]: 2.91 µM (active)

O=C(c1cccnc1)N1CCN(Cc2cccc(Br)c2)CC1
IC50 [2]: 117 µM (active)

CCC/C=C(\CCC)C(NC(=O)c1ccc(-c2ccccc2)cc1)c1ccc(C(=O)OC)cc1 (stereo unspecified)
AC50 (Cytochrome P450 1A2): 0.631 µM (inconclusive) | AC50 (Cytochrome P450 3A4): 6.31 µM (inconclusive)

O=C(c1cnccn1)N1CCC[C@@]2(CCN(c3ccccn3)C2)C1
AC50 (Cytochrome P450 1A2): 20 µM (inconclusive)

N#Cc1cccc(NC(=O)N2CCCC3(CCN(C(=O)c4cc(C(F)(F)F)cc(C(F)(F)F)c4)CC3)C2)c1
AC50 (Cytochrome P450 1A2): 6.31 µM (inconclusive)

Cc1c(N=Nc2ccc(O)cc2)c(=O)n(-c2ccccc2)n1C
IC50 [2]: 19.8 µM (active)

Cc1ccc2nc(Cl)c3cc(C(=O)N(CCN(C)C)Cc4ccco4)sc3c2c1
EC50 [6]: 0.123 µM (active) | EC50 [7]: > 60 µM (not active) | AC50 [5]: 1.86 µM (active)

COc1cccc(O)c1CN1CCC(C(=O)Nc2ccc(-c3cccc(C)c3)cc2)CC1
AC50 [5]: 6.71 µM (active)

Cc1[nH]c2ccccc2c1-c1csc(NC(=O)CSCCO)n1
IC50 [2]: 122 µM (active)
